From publication PMC12226733, “Evolution of iGluR ligand specificity, polyamine regulation, and ion selectivity inferred from a placozoan epsilon receptor” (Communications Biology, 2025)
Several values for one entry are separate records, joined by “and”; a condition that tells them apart may be missing. Equal values may be shown once. Read-outs that look alike come from different tables or passages of the source.

Tests used:
GluA2(Q) wt = molecular target: T1, GluA2(Q) wt (Homo sapiens, UniProt P42262); experiment: outside-out patch clamp, block by intracellular spermine, HEK-293T/17 cells; type: biochemical; details: for Normalized conductance (Gnorm) GluA2 wild type / Normalized current (Inorm) GluA2 wild type: single recordings and AVG;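 on Normalized current (Inorm) GluA2 wild type: current normalized to the maximum current response at −100 mV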
T1 construct: host or cells: HEK-293T/17
Description: (§1) Parallel experiments were carried out in human GluA2 homotetramers bearing equivalent Q/R/N and +4 site mutations to compare the regulation of voltage-dependent polyamine block within the broader context of mammalian receptors. Experimental design remained the same, except for using 10 mM glutamate as the agonist used to evoke membrane currents (Fig. 7a, d, g, and j). […] Their properties were accordingly compared to wildtype GluA2(Q) co-expressed with TARP-γ2.
(§2) HEK-293T/17 cells (ATCC) were maintained in MEM supplemented with GlutaMAX and 10% fetal bovine serum (FBS) at 37 °C and 5% CO2. […] Transient transfections were carried out 48 h post-plating using the calcium phosphate precipitation method. After 6–8 hours, cells were washed twice with PBS and maintained in fresh medium. Cells transfected with mammalian GluA2 cDNA (plasmid vector described above) were returned to an incubator at 37 °C for 24–48 hours and cells transfected with Epsilon GluE1αA were incubated at 28 °C for 48–72 hours. In cells co-transfected with TARP-γ2, 30 μM NBQX was included in the medium to minimize AMPAR/auxiliary-induced cytotoxicity. All constructs were co-transfected with a plasmid encoding enhanced green fluorescent protein (eGFP) to identify transfected cells. Electrophysiology responses were recorded from outside-out patches excised from transfected cells. Recording pipettes were composed of borosilicate glass (3 to 6 megaohm, King Precision Glass) coated with dental wax to reduce electrical noise. All recordings were performed using Axopatch 200B amplifier (Molecular Devices, LLC). Current records were filtered at 5 or 10 kHz and sampled at 25–50 kHz. Series resistance (3 to 12 megaohms) was compensated by 95%. Recordings were performed at a range of holding potentials from −100 mV to 100 mV to study polyamine block. Data was acquired using pClamp9 software (Molecular Devices, LLC). All experiments were performed at room temperature. All chemicals were purchased from Sigma-Aldrich, unless otherwise indicated. External solution contained (in mM): 150 NaCl, 5 HEPES, 0.1 CaCl2, 0.1 MgCl, and […], pH 7.3–7.4. […] The osmotic pressure of all solutions was adjusted to 295 to 300 mOsm with sucrose. […] Stocks were thawed on the day of the experiment and used to prepared agonist-containing external solutions. Raw data for all electrophysiology experiments are provided in Supplementary Data 3. Current-voltage (I-V) relationships were fit using Origin 7 (OriginLab) using a ninth order polynomial function to estimate the reversal potential (Vrev).
(§3) Agonist-evoked membrane conductance (G) was calculated using the following equation: G=I/(V−Vrev)
(§4) Conductance-voltage (G-V) relationships were fit using Origin 7 (OriginLab) with the single permeant blocker model as done previously[46]: G=Gmax/1+[Spm]/Kd Where Gmax is the maximal conductance, [Spm] is the internal Spm concentration, and Kd is the dissociation constant.
(§5) Kd is defined as: Kd=koff+kperm/kon=sumofexitrates/bindingrate
(§6) And redefined as: Kd=g*exp(V/h)+L*exp(V/k) Where h and k are voltage dependencies of g and L, respectively, and at 0 mV: g=koff/konandL=kperm/kon

GluA2 Q607S = molecular target: T2, GluA2 Q607S (Homo sapiens, UniProt P42262, Q607S); experiment: as above; type: biochemical;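 on Normalized conductance (Gnorm): normalized to each receptor's own maximal conductance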
T2 construct: host or cells: HEK-293T/17
Description: as §1, §2, §3, §4, §5, §6

[1] = GluA2 Q670S, 10 mV, single recordings and AVG
[2] = GluA2 Q670S, 20 mV, single recordings and AVG
[3] = GluA2 Q670S, 30 mV, single recordings and AVG
[4] = GluA2 Q670S, 40 mV, single recordings and AVG
[5] = GluA2 Q670S, 50 mV, single recordings and AVG
[6] = GluA2 Q670S, 60 mV, single recordings and AVG
[7] = GluA2 Q670S, 70 mV, single recordings and AVG
[8] = GluA2 Q670S, 80 mV, single recordings and AVG
[9] = GluA2 Q670S, 90 mV, single recordings and AVG

T1 sequence (P42262 25-883): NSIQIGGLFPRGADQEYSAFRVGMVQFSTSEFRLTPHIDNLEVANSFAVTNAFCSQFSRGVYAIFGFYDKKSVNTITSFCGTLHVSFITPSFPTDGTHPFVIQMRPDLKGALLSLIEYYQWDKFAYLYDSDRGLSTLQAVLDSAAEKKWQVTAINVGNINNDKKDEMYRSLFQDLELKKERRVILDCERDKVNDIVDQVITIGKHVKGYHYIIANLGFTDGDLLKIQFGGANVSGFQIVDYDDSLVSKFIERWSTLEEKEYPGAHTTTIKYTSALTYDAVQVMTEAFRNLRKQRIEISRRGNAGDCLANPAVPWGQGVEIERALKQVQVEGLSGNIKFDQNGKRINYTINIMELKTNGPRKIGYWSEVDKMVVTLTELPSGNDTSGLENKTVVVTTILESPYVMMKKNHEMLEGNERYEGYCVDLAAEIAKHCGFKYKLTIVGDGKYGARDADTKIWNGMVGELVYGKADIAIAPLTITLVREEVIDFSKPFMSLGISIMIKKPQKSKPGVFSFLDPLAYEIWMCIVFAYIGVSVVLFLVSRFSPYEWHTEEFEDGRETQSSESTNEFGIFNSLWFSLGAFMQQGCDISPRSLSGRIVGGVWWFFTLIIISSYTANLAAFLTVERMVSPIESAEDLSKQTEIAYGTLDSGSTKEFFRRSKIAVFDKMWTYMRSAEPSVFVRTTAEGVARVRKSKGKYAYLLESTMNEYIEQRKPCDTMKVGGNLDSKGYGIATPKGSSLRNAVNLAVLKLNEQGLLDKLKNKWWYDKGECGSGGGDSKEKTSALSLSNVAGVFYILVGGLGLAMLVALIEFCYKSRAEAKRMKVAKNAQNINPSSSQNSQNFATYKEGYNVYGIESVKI
T2 sequence (P42262 25-883 Q607S): as the sequence (P42262 25-883) above, with Q583S counted along it

With `NCCCNCCCCNCCCN` [spermine] the “Normalized conductance (Gnorm) GluA2 wild type” value (GluA2(Q) wt; 10 mV) was 0.13 and 0.07 and 0.09 and 0.12 and 0.14 and 0.11, the “Normalized current (Inorm) GluA2 wild type” value (GluA2(Q) wt; 30 mV) was 0.0172 and the “Normalized current (Inorm) GluA2 wild type” value (GluA2(Q) wt; 70 mV) was 0.19 and 0.25 and 0.20 and 0.28 and 0.32 and 0.36 and 0.27. The “Normalized conductance (Gnorm) GluA2 wild type” value (GluA2(Q) wt; 80 mV) was 0.39 and 0.55 and 0.61 and 0.72 and 0.70 and 0.59, the “Normalized current (Inorm) GluA2 wild type” value (GluA2(Q) wt; 80 mV) was 0.31 and 0.42 and 0.39 and 0.43 and 0.54 and 0.52 and 0.44 and the “Normalized conductance (Gnorm) GluA2 wild type” value (GluA2(Q) wt; 90 mV) was 0.49 and 0.69 and 0.70 and 0.77 and 0.89 and 0.81 and 0.72. The “Normalized current (Inorm) GluA2 wild type” value (GluA2(Q) wt; 90 mV) was 0.44 and 0.59 and 0.56 and 0.62 and 0.76 and 0.68 and 0.61, the “Normalized conductance (Gnorm) GluA2 wild type” value (GluA2(Q) wt; 100 mV) was 0.66 and 0.80 and 0.82 and 0.89 and 0.94 and the “Normalized current (Inorm) GluA2 wild type” value (GluA2(Q) wt; 100 mV) was 0.66 and 0.77 and 0.74 and 0.80 and 0.89. The “Normalized current (Inorm) GluA2 wild type” value (GluA2(Q) wt; -10 mV) was -0.0326, the “Normalized current (Inorm) GluA2 wild type” value (GluA2(Q) wt; -20 mV) was -0.0532 and the “Normalized conductance (Gnorm) GluA2 wild type” value (GluA2(Q) wt; -40 mV) was 0.53 and 0.50 and 0.49 and 0.66 and 0.63 and 0.73 and 0.59. The “Normalized conductance (Gnorm) GluA2 wild type” value (GluA2(Q) wt; -50 mV) was 0.65 and 0.63 and 0.62 and 0.80 and 0.70 and 0.82, the “Normalized conductance (Gnorm) GluA2 wild type” value (GluA2(Q) wt; -60 mV) was 0.75 and 0.73 and 0.72 and 0.89 and 0.80 and 0.79 and the “Normalized conductance (Gnorm) GluA2 wild type” value (GluA2(Q) wt; -70 mV) was 0.83 and 0.76 and 0.82 and 0.93 and 0.85 and 0.92. The “Normalized conductance (Gnorm) GluA2 wild type” value (GluA2(Q) wt; -80 mV) was 0.88 and 0.91 and 0.95 and 0.89, the “Normalized conductance (Gnorm) GluA2 wild type” value (GluA2(Q) wt; -90 mV) was 0.90 and 0.93 and 0.98 and 0.99 and 0.95 and the “Normalized conductance (Gnorm) GluA2 wild type” value (GluA2(Q) wt; -100 mV) was 0.96 and 0.99 and 0.97 and 1.03 and 1.00. The “Normalized current (Inorm) GluA2 wild type” value (GluA2(Q) wt; -100 mV) was -1.00, the “h, voltage dependency of block onset” value (GluA2(Q) wt; GluA2(Q) wt) was −18.5 ± 0.7 mV and the “k, voltage dependency of block relief” value (GluA2(Q) wt; GluA2(Q) wt) was 14.3 ± 0.6 mV. The Kd (GluA2(Q) wt; GluA2(Q) wt, 30 µM internal Spm, 10 mM glutamate, read-out: Kd(0mV)) was 5.4 ± 2.6 µM, the k (GluA2(Q) wt; fit of Gnorm vs voltage, GluA2 wild type, single recordings) was 16.05 and 14.65 and 13.61 and 14.56 and 11.91 and 14.81 and the “Normalized current (Inorm)” value (GluA2 Q607S) was -0.0262. For the same compound, the “h, voltage dependency of block onset” value (GluA2 Q607S; GluA2 Q607S) was −14.0 ± 2.3 mV, the “k, voltage dependency of block relief” value (GluA2 Q607S; GluA2 Q607S) was 164.4 ± 31.1 mV and the Kd (GluA2 Q607S; GluA2 Q607S, 30 µM internal Spm, 10 mM glutamate, read-out: Kd(0mV)) was 36.2 ± 6.7 µM. The “Normalized conductance (Gnorm)” value (GluA2 Q607S; GluA2 Q670S, 0 mV, single recording) was 0.58, the “Normalized conductance (Gnorm)” value (GluA2 Q607S; [1]) was 0.61 and 0.49 and 0.58 and 0.59 and 0.57 and the “Normalized current (Inorm)” value (GluA2 Q607S; [1]) was 0.0362 and 0.03 and 0.04 and 0.0351 and 0.0359. The “Normalized conductance (Gnorm)” value (GluA2 Q607S; [2]) was 0.63 and 0.50 and 0.57 and 0.64 and 0.59, the “Normalized current (Inorm)” value (GluA2 Q607S; [2]) was 0.095 and 0.09 and 0.10 and 0.11 and the “Normalized conductance (Gnorm)” value (GluA2 Q607S; [3]) was 0.65 and 0.52 and 0.57 and 0.61 and 0.59. The “Normalized current (Inorm)” value (GluA2 Q607S; [3]) was 0.16 and 0.15 and 0.17, the “Normalized conductance (Gnorm)” value (GluA2 Q607S; [4]) was 0.67 and 0.55 and 0.57 and 0.65 and 0.61 and the “Normalized current (Inorm)” value (GluA2 Q607S; [4]) was 0.23 and 0.22 and 0.25. The “Normalized conductance (Gnorm)” value (GluA2 Q607S; [5]) was 0.68 and 0.55 and 0.59 and 0.63, the “Normalized current (Inorm)” value (GluA2 Q607S; [5]) was 0.29 and 0.28 and 0.33 and 0.30 and the “Normalized conductance (Gnorm)” value (GluA2 Q607S; [6]) was 0.74 and 0.61 and 0.65 and 0.67. For the same compound, the “Normalized current (Inorm)” value (GluA2 Q607S; [6]) was 0.39 and 0.36 and 0.38, the “Normalized conductance (Gnorm)” value (GluA2 Q607S; [7]) was 0.69 and 0.61 and 0.66 and the “Normalized current (Inorm)” value (GluA2 Q607S; [7]) was 0.43 and 0.41 and 0.48 and 0.44. The “Normalized conductance (Gnorm)” value (GluA2 Q607S; [8]) was 0.72 and 0.65 and 0.71 and 0.69, the “Normalized current (Inorm)” value (GluA2 Q607S; [8]) was 0.51 and 0.57 and 0.53 and the “Normalized conductance (Gnorm)” value (GluA2 Q607S; [9]) was 0.70 and 0.62 and 0.71 and 0.68. For the same compound, the “Normalized current (Inorm)” value (GluA2 Q607S; [9]) was 0.56 and 0.55 and 0.64 and 0.59 and the “Normalized conductance (Gnorm)” value (GluA2 Q607S; GluA2 Q670S, 100 mV, single recordings and AVG) was 0.72 and 0.65 and 0.76 and 0.71.
